Results reported in ChEMBL document CHEMBL1138491, “An innovative method to study target protein-drug interactions by mass spectrometry” (J Med Chem, 2009).
pIC50: −log10 of the molar value.

Target: T1, Peroxisome proliferator-activated receptor alpha (Homo sapiens, UniProt Q07869)
T1 sequence (Q07869 whole entry): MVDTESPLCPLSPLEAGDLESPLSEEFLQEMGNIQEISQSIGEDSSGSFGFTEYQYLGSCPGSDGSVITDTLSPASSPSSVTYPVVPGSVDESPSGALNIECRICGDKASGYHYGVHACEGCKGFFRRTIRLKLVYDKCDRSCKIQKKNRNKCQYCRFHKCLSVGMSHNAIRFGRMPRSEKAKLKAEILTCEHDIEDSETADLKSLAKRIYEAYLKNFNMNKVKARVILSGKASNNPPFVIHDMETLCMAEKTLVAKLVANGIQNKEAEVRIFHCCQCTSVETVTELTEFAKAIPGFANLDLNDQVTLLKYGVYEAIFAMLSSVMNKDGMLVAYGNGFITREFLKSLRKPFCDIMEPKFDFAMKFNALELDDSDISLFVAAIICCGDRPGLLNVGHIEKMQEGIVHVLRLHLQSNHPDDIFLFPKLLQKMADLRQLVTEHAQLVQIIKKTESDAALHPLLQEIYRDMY
Assay: Inhibition of PPARalpha receptor

In the case of `CCC(=O)NC[C@H](Cc1ccc(OCCc2nc(-c3ccccc3)oc2C)cc1)N/C(C)=C\C(=O)c1ccc(C(F)(F)F)cc1`, the pIC50 was 6.62.
